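Dose response: 5 concentrations. Exposure: 48 h. Format: 96-well plates. Endpoint: linear interpolation; highest concentration if not reached. GI50 marks 50% less growth. The concentration for full growth arrest is given as TGI.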
Assays:
Assay in all cases: growth of human tumour cells (NCI), 48 h
[1] = system: 786-0 renal
[2] = system: A498 renal
[3] = system: A549 NSCLC
[4] = system: ACHN renal
[5] = system: BT-549 breast
[6] = system: CAKI-1 renal
[7] = system: CCRF-CEM leukemia
[8] = system: COLO 205 colon
[9] = system: DU-145 prostate
[10] = system: EKVX NSCLC
[11] = system: HCC-2998 colon
[12] = system: HCT-116 colon
[13] = system: HCT-15 colon
[14] = system: HL-60(TB) leukemia
[15] = system: HOP-62 NSCLC
[16] = system: HOP-92 NSCLC
[17] = system: HS 578T breast
[18] = system: HT29 colon
[19] = system: IGROV1 ovarian
[20] = system: K-562 leukemia
[21] = system: KM12 colon
[22] = system: LOX IMVI melanoma
[23] = system: M14 melanoma
[24] = system: MALME-3M melanoma
[25] = system: MCF7 breast
[26] = system: MDA-MB-231 breast
[27] = system: MDA-MB-435
[28] = system: MOLT-4 leukemia
[29] = system: NCI-H226 lung
[30] = system: NCI-H23 lung
[31] = system: NCI-H460 lung
[32] = system: NCI-H522 lung
[33] = system: NCI/ADR-RES ovarian
[34] = system: OVCAR-3 ovarian
[35] = system: OVCAR-4 ovarian
[36] = system: OVCAR-5 ovarian
[37] = system: OVCAR-8 ovarian
[38] = system: PC-3 prostate
[39] = system: RPMI-8226 leukemia
[40] = system: RXF 393 renal
[41] = system: SF-268 CNS
[42] = system: SF-295 CNS
[43] = system: SF-539 CNS
[44] = system: SK-MEL-2 melanoma
[45] = system: SK-MEL-28 melanoma
[46] = system: SK-MEL-5 melanoma
[47] = system: SK-OV-3 ovarian
[48] = system: SN12C renal
[49] = system: SNB-19 CNS
[50] = system: SNB-75 CNS
[51] = system: SR leukemia
[52] = system: SW-620 colon
[53] = system: T-47D breast
[54] = system: TK-10 renal
[55] = system: U251 CNS
[56] = system: UACC-257 melanoma
[57] = system: UACC-62 melanoma
[58] = system: UO-31 renal

Which GI50 [1] does the source give for O=C(Nc1ccc(I)cc1F)c1cc(Cl)ccc1O here?
Its GI50 is 2190 nM.

And the TGI [1]?
The TGI was 7180 nM.

What about the GI50 [2] of the same compound?
The GI50 was 176 nM.

What about the TGI [2] of the same compound?
The TGI was 585 nM.

And the GI50 [3]?
Its GI50 is 2730 nM.

And the TGI [3]?
Its TGI is over 100000 nM.

And the GI50 [4]?
Its GI50 is 487 nM.

What about the TGI [4] of the same compound?
The TGI was 10600 nM.

What about the GI50 [5] of the same compound?
Its GI50 is 372 nM.

What about the TGI [5] of the same compound?
The TGI was 1730 nM.

What about the GI50 [6] of the same compound?
Its GI50 is 305 nM.

What about the TGI [6] of the same compound?
The TGI was 2340 nM.

And the GI50 [7]?
The GI50 was 1730 nM.

What about the TGI [7] of the same compound?
The TGI was 10000 nM.

What about the GI50 [8] of the same compound?
Its GI50 is 3450 nM.

And the TGI [8]?
Its TGI is 11200 nM.

What about the GI50 [9] of the same compound?
The GI50 was 681 nM.

And the TGI [9]?
Its TGI is over 100000 nM.

What about the GI50 [10] of the same compound?
Its GI50 is 1030 nM.

And the TGI [10]?
Its TGI is 6810 nM.

And the GI50 [11]?
The GI50 was 3140 nM.

And the TGI [11]?
The TGI was 10100 nM.

What about the GI50 [12] of the same compound?
Its GI50 is 403 nM.

And the TGI [12]?
The TGI was 1950 nM.

And the GI50 [13]?
Its GI50 is 554 nM.

What about the TGI [13] of the same compound?
The TGI was 10700 nM.

What about the GI50 [14] of the same compound?
The GI50 was 441 nM.

What about the TGI [14] of the same compound?
Its TGI is 3270 nM.

What about the GI50 [15] of the same compound?
Its GI50 is 2210 nM.

What about the TGI [15] of the same compound?
Its TGI is 8000 nM.

What about the GI50 [16] of the same compound?
Its GI50 is 167 nM.

What about the TGI [16] of the same compound?
The TGI was 505 nM.

And the GI50 [17]?
Its GI50 is 325 nM.

And the TGI [17]?
The TGI was 3190 nM.

And the GI50 [18]?
Its GI50 is 3290 nM.

What about the TGI [18] of the same compound?
The TGI was 27300 nM.

What about the GI50 [19] of the same compound?
The GI50 was 360 nM.

What about the TGI [19] of the same compound?
The TGI was over 100000 nM.

What about the GI50 [20] of the same compound?
Its GI50 is 429 nM.

What about the TGI [20] of the same compound?
Its TGI is over 100000 nM.

And the GI50 [21]?
Its GI50 is 2310 nM.

And the TGI [21]?
The TGI was 6010 nM.

And the GI50 [22]?
Its GI50 is 424 nM.

And the TGI [22]?
The TGI was 2180 nM.

What about the GI50 [23] of the same compound?
Its GI50 is 407 nM.

What about the TGI [23] of the same compound?
Its TGI is 4720 nM.

And the GI50 [24]?
Its GI50 is 346 nM.

And the TGI [24]?
Its TGI is 1830 nM.

What about the GI50 [25] of the same compound?
The GI50 was 552 nM.

What about the TGI [25] of the same compound?
Its TGI is over 19800 nM.

What about the GI50 [26] of the same compound?
The GI50 was 388 nM.

What about the TGI [26] of the same compound?
Its TGI is 4560 nM.

What about the GI50 [27] of the same compound?
Its GI50 is 583 nM.

What about the TGI [27] of the same compound?
Its TGI is 4900 nM.

What about the GI50 [28] of the same compound?
The GI50 was 1440 nM.

What about the TGI [28] of the same compound?
The TGI was 5220 nM.

What about the GI50 [29] of the same compound?
Its GI50 is 1170 nM.

What about the TGI [29] of the same compound?
The TGI was 4890 nM.

What about the GI50 [30] of the same compound?
The GI50 was 386 nM.

And the TGI [30]?
The TGI was 3790 nM.

What about the GI50 [31] of the same compound?
The GI50 was 434 nM.

What about the TGI [31] of the same compound?
Its TGI is over 26900 nM.

What about the GI50 [32] of the same compound?
Its GI50 is 324 nM.

And the TGI [32]?
Its TGI is 4680 nM.

And the GI50 [33]?
Its GI50 is 400 nM.

And the TGI [33]?
The TGI was 3540 nM.

And the GI50 [34]?
The GI50 was 413 nM.

And the TGI [34]?
The TGI was 10700 nM.

What about the GI50 [35] of the same compound?
Its GI50 is 356 nM.

What about the TGI [35] of the same compound?
Its TGI is 6400 nM.

What about the GI50 [36] of the same compound?
Its GI50 is 3550 nM.

What about the TGI [36] of the same compound?
Its TGI is over 100000 nM.

What about the GI50 [37] of the same compound?
Its GI50 is 623 nM.

And the TGI [37]?
Its TGI is 11000 nM.

What about the GI50 [38] of the same compound?
The GI50 was 1910 nM.

What about the TGI [38] of the same compound?
Its TGI is 6500 nM.

What about the GI50 [39] of the same compound?
Its GI50 is 280 nM.

And the TGI [39]?
The TGI was 1280 nM.

And the GI50 [40]?
Its GI50 is 507 nM.

What about the TGI [40] of the same compound?
Its TGI is 3070 nM.

What about the GI50 [41] of the same compound?
The GI50 was 507 nM.

And the TGI [41]?
The TGI was 7060 nM.

And the GI50 [42]?
Its GI50 is 1750 nM.

What about the TGI [42] of the same compound?
Its TGI is 3490 nM.

What about the GI50 [43] of the same compound?
Its GI50 is 409 nM.

What about the TGI [43] of the same compound?
The TGI was 3890 nM.

And the GI50 [44]?
The GI50 was 358 nM.

And the TGI [44]?
Its TGI is 1990 nM.

What about the GI50 [45] of the same compound?
The GI50 was 353 nM.

And the TGI [45]?
The TGI was 1710 nM.

What about the GI50 [46] of the same compound?
Its GI50 is 234 nM.

What about the TGI [46] of the same compound?
Its TGI is 596 nM.

What about the GI50 [47] of the same compound?
The GI50 was 615 nM.

And the TGI [47]?
Its TGI is 2640 nM.

What about the GI50 [48] of the same compound?
Its GI50 is 365 nM.

And the TGI [48]?
Its TGI is 4470 nM.

What about the GI50 [49] of the same compound?
Its GI50 is 372 nM.

What about the TGI [49] of the same compound?
Its TGI is over 100000 nM.

What about the GI50 [50] of the same compound?
The GI50 was 308 nM.

What about the TGI [50] of the same compound?
The TGI was 2360 nM.

And the GI50 [51]?
Its GI50 is 531 nM.

What about the TGI [51] of the same compound?
Its TGI is over 100000 nM.

And the GI50 [52]?
Its GI50 is 737 nM.

And the TGI [52]?
The TGI was 12700 nM.

And the GI50 [53]?
Its GI50 is 294 nM.

And the TGI [53]?
The TGI was 2570 nM.

And the GI50 [54]?
Its GI50 is 1130 nM.

What about the TGI [54] of the same compound?
Its TGI is 16300 nM.

What about the GI50 [55] of the same compound?
Its GI50 is 590 nM.

What about the TGI [55] of the same compound?
Its TGI is over 100000 nM.

What about the GI50 [56] of the same compound?
The GI50 was 467 nM.

What about the TGI [56] of the same compound?
Its TGI is 3990 nM.

What about the GI50 [57] of the same compound?
The GI50 was 273 nM.

And the TGI [57]?
Its TGI is 1050 nM.

What about the GI50 [58] of the same compound?
The GI50 was 235 nM.

And the TGI [58]?
Its TGI is 1650 nM.

— PubChem BioAssay (NCI)
